Reference: publication PMC4666614, “Identification of New Regions in HIV-1 gp120 Variable 2 and 3 Loops that Bind to α4β7 Integrin Receptor” (PLoS ONE, 2015)
Several values for one entry are separate records, joined by “and”; a condition that tells them apart may be missing. Identical values can stand only once. Bridge positions count the residues as written; N and C are the ends. Ends that are not written are not given here.

Legend:
[1] = system: α4β7 on RPMI8866 cells; experiment: Binding of α4β7 on RPMI8866 cells to plate-bound biotinylated V2/V3 peptides and its inhibition by ACT-1 (AlamarBlue); assay type: cell-based, human; conditions: streptavidin plate, biotinylated peptide 5 μg/ml; cells pre-incubated with ACT-1 0.5 μg/ml 45 min 37°C; 8 hour time point; average of 3 to 12 experiments in duplicate or triplicate
Protocol: Triplicate wells of a 96-well U-bottom polystyrene plate (Immunlon) were coated overnight at 4°C with 100 μl of 2 μg/ml of MAdCAM-1 or Streptavidin diluted in 0.05 M bicarbonate buffer, pH 9.6. The streptavidin-coated plates were then incubated with biotinylated cyclic or linear V2 peptides or cyclic V3 peptides (5 μg/ml in bicarbonate buffer, See Table 1 for sequence data) for 1 hour at 37°C. The solution from the plates was discarded and the plates were then blocked with blocking buffer (25 mM TRIS, 2.7 mM potassium chloride, 150 mM sodium chloride, 0.5% casein, 4 mM manganese chloride, pH 7.2) for 1 hour at 37°C. The solution was discarded and the plates were incubated with sample buffer (25 mM TRIS, 2.7 mM potassium chloride, 150 mM sodium chloride, 4 mM manganese chloride, pH 7.2 containing 1% fetal bovine sera) for 45 minutes at 37°C. Plates were manually washed 4 times with blocking buffer followed by the addition of 2 x 10^5 RPMI8866 cells/well that had been pre-incubated for 45 minutes at 37°C with sample buffer, with sample buffer containing 0.5 μg/ml of mAb ACT-1 or as a control, normal mouse serum (1:100). Plates were then incubated at 37°C (5% CO2) for 1 hour, washed 5 times with wash buffer followed by the addition of 100 μl of RPMI-1640 containing 1% FBS, pen/strep/glutamine. The adhered cells were detected by the addition of 10 μl of AlamarBlue® dye. Plates were incubated at 37°C (5% CO2) for 8 hours. Fluorescence was measured at 2 hour intervals using a M2 plate reader. For each condition, a minimum of 2 to 12 independent experiments run in duplicate or triplicate was performed. The optimum amount of coating proteins/peptides and the amount of ACT-1 required to inhibit α4β7 on RPMI8866 cells was determined in separate experiments (data not shown).

[2] = system: α4β7 integrin binding to MAdCAM-1; experiment: Competitive inhibition of binding of α4β7 on RPMI8866 cells to MAdCAM-1 by peptides, viruses, IMCs and controls; assay type: cell-based, human; conditions: for Inhibition of α4β7 integrin binding to MAdCAM-1 by peptide (competition): peptide 10 μg/ml, cells pre-incubated 45 min 37°C, 2–4 experiments in triplicate; for % Inhibition ± SD of α4β7 integrin binding to MAdCAM-1: average of 3–7 experiments in triplicate
Protocol: 96-well plates were coated with MAdCAM-1 as described above. RPMI8866 cells (2 X 10^6/ ml) were incubated with cyclic V2 or V3 MN, TH023, or acute subtype C (C-6980v0c22) peptides or with scrambled flanking region (SFL) or the mid region (SMR) TH023 V2 or with a completely scrambled (SCR) TH023 peptide (10 μg/ml) for 45 minutes at 37°C before being added in triplicate to the MAdCAM-1 coated plates for 1 hour at 37°C. In concurrent experiments, RMI8866 cells were incubated with purified primary HIV-1 (0.75 ng to 6 ng/well p24) subtype B (SF162, US-1, JRFL), subtype CRF01_AE viruses (92TH023), IMCs (0.75 ng to 1000 ng/well p24 in each case) containing acute or chronic envelopes (Acute CRF01_AE (703357) [GenBank:JN944658], C (C-6980v0c22) [GenBank:HM215344], A(851891); Chronic CRF01_AE (CM235.2) [AF259954.1], C (ET02220LucR) [U46016]) or with pSG3Δenv. pSG3Δenv contained a four-nucleotide insertion mutation (CTAG) in Env, leading to a translation stop codon after amino acid residue 142. The pSG3Δenv clone is routinely used for generating Env pseudotyped infectious virions.
Viruses were tested in triplicate in two independent experiments. In additional experiments, mannose, HIV-1 p24, and ovalbumin (0.2–10 μg/ml) were used in the competition assay as nonspecific protein controls (data in Table 2; 3–7 experiments performed in triplicate), whereas, an anti-RSV mAb, Synagis® was used as a nonspecific antibody control. Synagis® was incubated for 45 minutes with either MAdCAM-1 or with RPMI8866 cells and then placed in the assay system. The remainder of the assay was similar to that described above. Significance was determined by paired Student’s t test.

[3] = system: α4β7 on RPMI8866 cells; experiment: Flow cytometry binding of ACT-1, gp120 and cyclic V2 peptides to RPMI8866 cells; design: species or system human; conditions: gp120 2.5 μg (anti-gp145 + anti-mouse Texas Red); biotinylated peptides 1 μg and 5 μg (neutrAvidin-PE); 30 min on ice; n = 2
Protocol: RPMI8866 cells (0.5 x10^6) were incubated for 30 minutes on ice with 10% normal goat sera in PBS to block the Fc receptors. Cells were suspended in cold FACS buffer (PBS-containing 0.5% BSA) and incubated at room temperature for 30 minutes with the mAb ACT-1 conjugated to APC (1 μg). Cells were washed twice with cold FACS buffer, fixed with 2% formaldehyde in PBS, and analyzed on a LSRII flow cytometer. The data was analyzed using FlowJo8.8.6 software (TreeStar Inc.).
RPMI8866 cells (1 x10^6) were suspended in cold FACS buffer (PBS-containing 0.5% BSA) and incubated at room temperature for 30 minutes with LIVE ⁄ DEAD® Fixable Dead Cell Stain (Life Technologies) as per the manufacturer’s instruction. Cells were washed twice with cold FACS buffer before being incubated with 10% goat sera in PBS for 30 minutes on ice. All subsequent incubations were carried out for 30 minutes on ice. CHO- expressed HIV-1IIIB rgp120 (2.5 μg) and biotinylated cyclic V2-TH023 peptide (1 μg and 5 μg) were incubated with RPMI8866 cells. […] Cells were washed twice with cold FACS buffer, fixed with 2% formaldehyde in PBS, and analyzed on a LSRII flow cytometer. The data was analyzed using FlowJo8.8.6 software (TreeStar Inc.).

Molecule	Percent inhibition by ACT-1 of binding of α4β7 on RPMI8866 cells to the plate-bound peptide [1] [%]	Inhibition of α4β7 integrin binding to MAdCAM-1 by peptide (competition) [2]	also measured
CSFNITTELRDKRKKEHALFNNLDIVQLDGNSSLYRLINC (disulfide 1-40 (inferred)) [Cyclic V2 Acute C, cyclic V2 loop peptide based on acute C strain C06980v0c22]	72.3		
Synagis: anti-RSV mAb used as a nonspecific antibody control [reference compound]			Inhibition of α4β7 binding to MAdCAM-1 by nonspecific antibody control ([2]; mAb incubated 45 min either with MAdCAM-1-coated plate or with RPMI8866 cells, 3 experiments): did not inhibit the α4β7 binding
CTRPNYNKRKRIHIGPGRAFYTTKNIKGTIRQAHC (disulfide 1-35 (inferred)) [Cyclic V3 MN, cyclic V3 loop peptide based on MN strain (subtype B)]	75.5	80%	
gp120: HIV-1IIIB rgp120 (CHO expressed) [reference compound]			Binding to α4β7 on RPMI8866 cells (flow cytometry) [3]: bound to α4β7
OC[C@H]1OC(O)[C@@H](O)[C@@H](O)[C@@H]1O (stereo partly drawn) [Mannose, mannose, reference compound]			% Inhibition ± SD of α4β7 integrin binding to MAdCAM-1 ([2]; 0.2 μg/ml): 6.7 ± 7.6%; % Inhibition ± SD of α4β7 integrin binding to MAdCAM-1 ([2]; 1.0 μg/ml): 7.6 ± 8.8%; % Inhibition ± SD of α4β7 integrin binding to MAdCAM-1 ([2]; 5 μg/ml): 16.3 ± 14.9%; % Inhibition of α4β7 integrin binding to MAdCAM-1 ([2]; 10 μg/ml, average of triplicate determinations from a single experiment): 0%; Inhibition of α4β7 integrin binding to MAdCAM-1 by nonspecific controls (in words) ([2]; 0.2–10 μg/ml): no significant inhibition
CTRPSNNTRTSINIGPGQVFYRTGDIIGDIRKAYC (disulfide 1-35 (inferred)) [Cyclic V3 TH023, cyclic V3 loop peptide, strain 92TH023, HXB2 295–331]	67.6	80–90% and 80%	
CSFNITTSIGDKMQKEYALLYKLDIEPIDNDSTSYRLISC (disulfide 1-40 (inferred)) [Cyclic V2 MN, cyclic V2 loop peptide based on MN strain (subtype B)]	66.3		
XSFNMTTELRDKKQKVHALFYKLDIVPIEDNTSSSEYRLINX [Linear V2 TH023, linear V2 92TH023 peptide with S-methyl Cysteine at both ends]	65.5		
CSFNMTTELRDKKQKVHALFYKLDIVPIEDNTSSSEYRLINC (disulfide 1-42 (inferred)) [Cyclic V2 TH023, biotinylated cyclic V2 loop peptide of gp120, strain 92TH023 (CRF01_AE), HXB2 157–196]	62.9	80–90%	Binding to α4β7 on RPMI8866 cells (flow cytometry) [3]: bound to α4β7
CTRPNNNTRKSIRIGPGQTFYATGDIIGDIRQAYC (disulfide 1-35 (inferred)) [Cyclic V3 Acute C, cyclic V3 loop peptide based on acute C strain C06980v0c22]	70.0		
